{
  "source": "patent US20230141887A1",
  "about": "“CRYSTAL FORM OF DIAZASPIROPYRAN COMPOUND” (MEDSHINE DISCOVERY INC., priority 2020, published 2023)",
  "key": {"[1]": {"target": "T1, FLT3(D835V) (Homo sapiens, UniProt P36888, D835V)", "T1 sequence (P36888 27-993 D835V)": "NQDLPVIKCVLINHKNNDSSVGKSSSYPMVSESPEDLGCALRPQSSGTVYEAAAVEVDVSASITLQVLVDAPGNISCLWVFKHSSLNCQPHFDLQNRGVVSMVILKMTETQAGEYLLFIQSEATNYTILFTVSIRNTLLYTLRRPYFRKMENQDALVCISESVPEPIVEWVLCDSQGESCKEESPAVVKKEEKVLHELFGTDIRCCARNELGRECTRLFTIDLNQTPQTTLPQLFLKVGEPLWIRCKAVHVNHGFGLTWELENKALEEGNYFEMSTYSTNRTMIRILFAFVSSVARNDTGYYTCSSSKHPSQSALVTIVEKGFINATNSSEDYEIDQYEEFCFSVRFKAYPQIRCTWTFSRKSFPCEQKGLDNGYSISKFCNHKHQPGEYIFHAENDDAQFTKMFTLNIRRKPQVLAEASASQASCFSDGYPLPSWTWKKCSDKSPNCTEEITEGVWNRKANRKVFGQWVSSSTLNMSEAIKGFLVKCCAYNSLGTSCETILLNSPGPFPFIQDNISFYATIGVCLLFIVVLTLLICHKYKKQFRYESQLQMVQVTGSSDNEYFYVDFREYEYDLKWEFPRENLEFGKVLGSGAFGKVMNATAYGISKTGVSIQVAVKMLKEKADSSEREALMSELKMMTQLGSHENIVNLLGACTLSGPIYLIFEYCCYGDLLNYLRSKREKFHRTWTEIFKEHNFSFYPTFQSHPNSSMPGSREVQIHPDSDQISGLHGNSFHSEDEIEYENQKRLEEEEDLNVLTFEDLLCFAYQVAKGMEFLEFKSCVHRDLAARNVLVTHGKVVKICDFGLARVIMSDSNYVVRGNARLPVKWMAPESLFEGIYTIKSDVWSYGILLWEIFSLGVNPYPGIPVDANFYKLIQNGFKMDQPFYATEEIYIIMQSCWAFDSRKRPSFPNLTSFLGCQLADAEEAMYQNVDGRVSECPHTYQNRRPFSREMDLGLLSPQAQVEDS", "format": "binding"}, "[2]": {"target": "T2, FLT3(N841I) (Homo sapiens, UniProt P36888, N841I)", "T2 sequence (P36888 27-993 N841I)": "T1 sequence (P36888 27-993 D835V) with V809D, N815I", "format": "binding"}},
  "note": "Residue numbers refer to the chain shown, from its start.",
  "data": [
    {"smiles": "CCc1nc(C(N)=O)c(Nc2ccc(N3CCC4(CCN(C)CC4)CC3)c(C)c2)nc1NC1CCOCC1.O=C(O)C(F)(F)F", "values": [
      {"measurement": "Kd", "setting": "[1]", "result": 0.23, "unit": "nM"},
      {"measurement": "Kd", "setting": "[2]", "result": 5.4, "unit": "nM"}
    ]}
  ]
}
